# According to ChEMBL document CHEMBL2016493, “Design, synthesis, synergistic antimicrobial activity and cytotoxicity of 4-aryl substituted 3,4-dihydropyrimidinones of curcumin” (Bioorg Med Chem Lett, 2012):
# The source made the active and inactive calls. The calls are words filed in the database; no cut-off is given here.
# Columns and labels:
# Curvularia lunata [1] = test: Antifungal activity against Curvularia lunata MTCC 581 at 40 uM/ml after 48 hrs by paper disc diffusion method; type: functional; conditions: for zone of inhibition at 40 µM: MTCC 581, 48 h, read-out: IZ
# Salmonella typhimurium [2] = test: Antibacterial activity against Salmonella typhimurium ATCC 23564 at 20 uM/ml after 24 hrs by kirby-bauer method; type: functional
# [3] = test system: Burkholderia pseudomallei; test: Antibacterial activity against Burkholderia pseudomallei NTCC 10274 at 40 uM/ml after 24 hrs by kirby-bauer method; type: functional
# Pseudomonas aeruginosa [4] = test: Antibacterial activity against Pseudomonas aeruginosa ATCC 15499 at 20 uM/ml after 24 hrs by kirby-bauer method; type: functional
# Escherichia coli [5] = test: Antibacterial activity against Escherichia coli ATCC 35218 at 80 uM/ml after 24 hrs by kirby-bauer method; type: functional; conditions: ATCC 35218, 24 h, read-out: IZ
# Escherichia coli [6] = test: Antibacterial activity against Escherichia coli ATCC 35218 at 160 uM/ml after 24 hrs by kirby-bauer method; type: functional; conditions: ATCC 35218, 24 h, read-out: IZ
# [7] = test system: Burkholderia pseudomallei; test: Antibacterial activity against Burkholderia pseudomallei NTCC 10274 at 20 uM/ml after 24 hrs by kirby-bauer method; type: functional
# QG-56 = test: Cytotoxicity against human QG56 cells after 48 hrs by MTT assay; type: functional, cell-based
# Curvularia lunata [8] = test: Antifungal activity against Curvularia lunata MTCC 581 at 160 uM/ml after 48 hrs by paper disc diffusion method; type: functional; conditions: MTCC 581, 48 h, read-out: IZ
# Aspergillus flavus [9] = test: Antifungal activity against Aspergillus flavus MTCC 1021 at 160 uM/ml after 48 hrs by paper disc diffusion method; type: functional
# [10] = test system: Burkholderia pseudomallei; test: Antibacterial activity against Burkholderia pseudomallei NTCC 10274 at 80 uM/ml after 24 hrs by kirby-bauer method; type: functional; conditions: NTCC 10274, 24 h, read-out: IZ
# Aspergillus niger [11] = test: Antifungal activity against Aspergillus niger MTCC 1108 at 160 uM/ml after 48 hrs by paper disc diffusion method; type: functional
# Aspergillus niger [12] = test: Antifungal activity against Aspergillus niger MTCC 1108 after 48 hrs by poison food method; type: functional
# Escherichia coli [13] = test: Antibacterial activity against Escherichia coli ATCC 35218 at 20 uM/ml after 24 hrs by kirby-bauer method; type: functional
# Trichoderma viride [14] = test: Antifungal activity against Trichoderma viride MTCC 1107 at 40 uM/ml after 48 hrs by paper disc diffusion method; type: functional; conditions: for zone of inhibition: MTCC 1107, 48 h, read-out: IZ
# Salmonella typhimurium [15] = test: Antibacterial activity against Salmonella typhimurium ATCC 23564 at 80 uM/ml after 24 hrs by kirby-bauer method; type: functional, Salmonella enterica subsp. enterica serovar Typhimurium; conditions: Salmonella enterica, ATCC 23564, 24 h; read-out: IZ
# Salmonella typhimurium [16] = test: Antibacterial activity against Salmonella typhimurium ATCC 23564 at 160 uM/ml after 24 hrs by kirby-bauer method; type: functional, Salmonella enterica subsp. enterica serovar Typhimurium; conditions: Salmonella enterica, ATCC 23564, 24 h; read-out: IZ
# Curvularia lunata [17] = test: Antifungal activity against Curvularia lunata MTCC 581 at 20 uM/ml after 48 hrs by paper disc diffusion method; type: functional; conditions: for zone of inhibition at 20 µM: MTCC 581, 48 h, read-out: IZ
# Trichoderma viride [18] = test: Antifungal activity against Trichoderma viride MTCC 1107 at 160 uM/ml after 48 hrs by paper disc diffusion method; type: functional; conditions: MTCC 1107, 48 h, read-out: IZ
# Aspergillus flavus [19] = test: Antifungal activity against Aspergillus flavus MTCC 1021 after 48 hrs by poison food method MTCC 1021; type: functional
# Staphylococcus aureus [20] = test: Antibacterial activity against Staphylococcus aureus ATCC 11632 at 160 uM/ml after 24 hrs by kirby-bauer method; type: functional
# Pseudomonas aeruginosa [21] = test: Antibacterial activity against Pseudomonas aeruginosa ATCC 15499 at 40 uM/ml after 24 hrs by kirby-bauer method; type: functional
# [22] = test system: Burkholderia pseudomallei; test: Antibacterial activity against Burkholderia pseudomallei NTCC 10274 at 160 uM/ml after 24 hrs by kirby-bauer method; type: functional; conditions: NTCC 10274, 24 h, read-out: IZ
# Escherichia coli [23] = test: Antibacterial activity against Escherichia coli ATCC 35218 at 40 uM/ml after 24 hrs by kirby-bauer method; type: functional
# Trichoderma viride [24] = test: Antifungal activity against Trichoderma viride MTCC 1107 at 20 uM/ml after 48 hrs by paper disc diffusion method; type: functional; conditions: for zone of inhibition at 20 µM: MTCC 1107, 48 h, read-out: IZ
# Curvularia lunata [25] = test: Antifungal activity against Curvularia lunata MTCC 581 at 80 uM/ml after 48 hrs by paper disc diffusion method; type: functional; conditions: MTCC 581, 48 h, read-out: IZ
# Pseudomonas aeruginosa [26] = test: Antibacterial activity against Pseudomonas aeruginosa ATCC 15499 at 160 uM/ml after 24 hrs by kirby-bauer method; type: functional; conditions: ATCC 15499, 24 h, read-out: IZ
# Salmonella typhimurium [27] = test: Antibacterial activity against Salmonella typhimurium ATCC 23564 at 40 uM/ml after 24 hrs by kirby-bauer method; type: functional, Salmonella enterica subsp. enterica serovar Typhimurium; conditions: Salmonella enterica, ATCC 23564, 24 h; read-out: IZ
# Pseudomonas aeruginosa [28] = test: Antibacterial activity against Pseudomonas aeruginosa ATCC 15499 at 80 uM/ml after 24 hrs by kirby-bauer method; type: functional; conditions: ATCC 15499, 24 h, read-out: IZ
# Trichoderma viride [29] = test: Antifungal activity against Trichoderma viride MTCC 1107 at 80 uM/ml after 48 hrs by paper disc diffusion method; type: functional; conditions: for zone of inhibition at 80 µM: MTCC 1107, 48 h, read-out: IZ
# Aspergillus niger [30] = test: Antifungal activity against Aspergillus niger MTCC 1108 at 80 uM/ml after 48 hrs by paper disc diffusion method; type: functional; conditions: MTCC 1108, 48 h, read-out: IZ
# Aspergillus flavus [31] = test: Antifungal activity against Aspergillus flavus MTCC 1021 at 20 uM/ml after 48 hrs by paper disc diffusion method; type: functional
# Staphylococcus aureus [32] = test: Antibacterial activity against Staphylococcus aureus ATCC 11632 at 80 uM/ml after 24 hrs by kirby-bauer method; type: functional; conditions: ATCC 11632, 24 h, read-out: IZ
# Aspergillus flavus [33] = test: Antifungal activity against Aspergillus flavus MTCC 1021 at 80 uM/ml after 48 hrs by paper disc diffusion method; type: functional; conditions: MTCC 1021, 48 h, read-out: IZ
# Aspergillus flavus [34] = test: Antifungal activity against Aspergillus flavus MTCC 1021 at 40 uM/ml after 48 hrs by paper disc diffusion method; type: functional; conditions: MTCC 1021, 48 h, read-out: IZ
# Staphylococcus aureus [35] = test: Antibacterial activity against Staphylococcus aureus ATCC 11632 at 20 uM/ml after 24 hrs by kirby-bauer method; type: functional; conditions: ATCC 11632, 24 h, read-out: IZ
# Aspergillus niger [36] = test: Antifungal activity against Aspergillus niger MTCC 1108 at 20 uM/ml after 48 hrs by paper disc diffusion method; type: functional
# Aspergillus niger [37] = test: Antifungal activity against Aspergillus niger MTCC 1108 at 40 uM/ml after 48 hrs by paper disc diffusion method; type: functional
# Staphylococcus aureus [38] = test: Antibacterial activity against Staphylococcus aureus ATCC 11632 at 40 uM/ml after 24 hrs by kirby-bauer method; type: functional; conditions: ATCC 11632, 24 h, read-out: IZ
smiles,measurement,setting,value
COc1cc(/C=C/C(=O)CC(=O)/C=C/c2ccc(O)c(OC)c2)ccc1O [CURCUMIN],inhibition zone (IZ),Curvularia lunata [1],inactive
same,inhibition zone (IZ),Salmonella typhimurium [2]; Salmonella enterica subsp. enterica serovar Typhimurium,inactive
same,inhibition zone (IZ),[3],inactive
same,inhibition zone (IZ),Pseudomonas aeruginosa [4],inactive
same,zone of inhibition at 80 µM,Escherichia coli [5],8 mm
same,zone of inhibition at 160 µM,Escherichia coli [6],10 mm
same,inhibition zone (IZ),[7],inactive
same,IC50,QG-56,100 uM/ml
same,IC50,HepG2,50 uM/ml
same,zone of inhibition at 160 µM,Curvularia lunata [8],11 mm
same,inhibition zone (IZ),Aspergillus flavus [9],inactive
same,zone of inhibition at 80 µM,[10],8 mm
same,inhibition zone (IZ),Aspergillus niger [11],inactive
same,MIC,Aspergillus niger [12],inactive
same,inhibition zone (IZ),Escherichia coli [13],inactive
same,inhibition zone (IZ),Trichoderma viride [14],inactive
same,zone of inhibition at 80 µM,Salmonella typhimurium [15],10 mm
same,zone of inhibition at 160 µM,Salmonella typhimurium [16],12 mm
same,inhibition zone (IZ),Curvularia lunata [17],inactive
same,zone of inhibition at 160 µM,Trichoderma viride [18],9 mm
same,MIC,Aspergillus flavus [19],inactive
same,inhibition zone (IZ),Staphylococcus aureus [20],inactive
same,inhibition zone (IZ),Pseudomonas aeruginosa [21],inactive
same,zone of inhibition at 160 µM,[22],9 mm
same,inhibition zone (IZ),Escherichia coli [23],inactive
same,inhibition zone (IZ),Trichoderma viride [24],inactive
same,IC50,HCT-116,50 uM/ml
same,zone of inhibition at 80 µM,Curvularia lunata [25],9 mm
same,zone of inhibition at 160 µM,Pseudomonas aeruginosa [26],11 mm
same,zone of inhibition at 40 µM,Salmonella typhimurium [27],9 mm
same,zone of inhibition at 80 µM,Pseudomonas aeruginosa [28],9 mm
same,inhibition zone (IZ),Trichoderma viride [29],inactive
COc1cc(/C=C/C(=O)C2=C(/C=C/c3ccc(O)c(OC)c3)NC(=O)NC2c2ccc(O)cc2)ccc1O (configuration not stated),zone of inhibition at 40 µM,Curvularia lunata [1],20 mm
same,zone of inhibition at 20 µM,"Salmonella typhimurium [2]; Salmonella enterica, ATCC 23564, 24 h, read-out: IZ",9 mm
same,zone of inhibition at 40 µM,"[3]; NTCC 10274, 24 h, read-out: IZ",11 mm
same,zone of inhibition at 20 µM,"Pseudomonas aeruginosa [4]; ATCC 15499, 24 h, read-out: IZ",17 mm
same,zone of inhibition at 80 µM,Escherichia coli [5],18 mm
same,zone of inhibition at 160 µM,Escherichia coli [6],22 mm
same,zone of inhibition at 20 µM,"[7]; NTCC 10274, 24 h, read-out: IZ",9 mm
same,IC50,QG-56,50 uM/ml
same,IC50,HepG2,25 uM/ml
same,zone of inhibition at 160 µM,Curvularia lunata [8],21 mm
same,zone of inhibition at 160 µM,"Aspergillus flavus [9]; MTCC 1021, 48 h, read-out: IZ",13 mm
same,zone of inhibition at 80 µM,[10],15 mm
same,zone of inhibition at 160 µM,"Aspergillus niger [11]; MTCC 1108, 48 h, read-out: IZ",11 mm
same,zone of inhibition at 80 µM,Aspergillus niger [30],9 mm
same,zone of inhibition at 20 µM,"Escherichia coli [13]; ATCC 35218, 24 h, read-out: IZ",12 mm
same,inhibition zone (IZ),Aspergillus flavus [31],inactive
same,zone of inhibition at 80 µM,Staphylococcus aureus [32],22 mm
same,zone of inhibition,Trichoderma viride [14],11 mm
same,zone of inhibition at 80 µM,Salmonella typhimurium [15],16 mm
same,zone of inhibition at 160 µM,Salmonella typhimurium [16],18 mm
same,zone of inhibition at 20 µM,Curvularia lunata [17],18 mm
same,zone of inhibition at 160 µM,Trichoderma viride [18],16 mm
same,zone of inhibition at 80 µM,Aspergillus flavus [33],11 mm
same,zone of inhibition at 160 µM,"Staphylococcus aureus [20]; ATCC 11632, 24 h, read-out: IZ",24 mm
same,zone of inhibition at 40 µM,Aspergillus flavus [34],9 mm
same,zone of inhibition at 20 µM,Staphylococcus aureus [35],16 mm
same,zone of inhibition at 40 µM,"Pseudomonas aeruginosa [21]; ATCC 15499, 24 h, read-out: IZ",19 mm
same,zone of inhibition at 160 µM,[22],19 mm
same,zone of inhibition at 40 µM,"Escherichia coli [23]; ATCC 35218, 24 h, read-out: IZ",14 mm
same,zone of inhibition at 20 µM,Trichoderma viride [24],9 mm
same,IC50,HCT-116,12.5 uM/ml
same,zone of inhibition at 80 µM,Curvularia lunata [25],20 mm
same,inhibition zone (IZ),Aspergillus niger [36],inactive
same,zone of inhibition at 160 µM,Pseudomonas aeruginosa [26],22 mm
same,zone of inhibition at 40 µM,Salmonella typhimurium [27],13 mm
same,zone of inhibition at 80 µM,Pseudomonas aeruginosa [28],19 mm
same,zone of inhibition at 80 µM,Trichoderma viride [29],14 mm
same,inhibition zone (IZ),Aspergillus niger [37],inactive
same,zone of inhibition at 40 µM,Staphylococcus aureus [38],19 mm
OC(Cn1cncn1)(Cn1cncn1)c1ccc(F)cc1F [FLUCONAZOLE],zone of inhibition at 40 µM,Curvularia lunata [1],27 mm
same,zone of inhibition at 160 µM,Curvularia lunata [8],31 mm
same,inhibition zone (IZ),Aspergillus flavus [9],inactive
same,inhibition zone (IZ),Aspergillus niger [11],inactive
same,MIC,Aspergillus niger [12],inactive
same,zone of inhibition,Trichoderma viride [14],24 mm
same,zone of inhibition at 20 µM,Curvularia lunata [17],24 mm
same,zone of inhibition at 160 µM,Trichoderma viride [18],32 mm
same,zone of inhibition at 20 µM,Trichoderma viride [24],21 mm
same,zone of inhibition at 80 µM,Curvularia lunata [25],28 mm
same,zone of inhibition at 80 µM,Trichoderma viride [29],29 mm
